From US8012975B2, “Antitumoral analogs of ET-743” (Pharma Mar, S.A., priority 2000, dated 2011)
Where two headings read alike, the source gives them in different places.

Columns and labels:
DU-145 [1] = tested on: DU-145
A-549 [2] = tested on: A-549
DU-145 [3] = test: Cytotoxic activity IC50, DU-145; details: Homo sapiens, DU-145, read-out: CYTOTOXIC ACTIVITIY IC50 (μM) DU-145, DU-145
A-549 [4] = test: Cytotoxic activity IC50, A-549; details: Homo sapiens, A549, read-out: CYTOTOXIC ACTIVITIY IC50 (μM) A-549, A-549

C=CCOC(=O)Oc1c(C)c2c(c3c1CC1[C@H]4c5c(cc(C)c(OC)c5O)C[C@@H]([C@H](O)N1[C@H]3CNC(=O)CCc1ccccc1)N4C)OCO2 (stereo partly shown)
IC50 (P-388): 0.1 nM
IC50 (DU-145 [1]): 0.1 nM
IC50 (HT-29): 0.1 nM
IC50 (MEL-28): 0.1 nM
IC50 (A-549 [2]): 0.1 nM

COc1c(C)cc2c(c1O)[C@@H]1C3Cc4c(OC(C)=O)c(C)c5c(c4[C@H](CNC(=O)[C@@H](C)NC(=O)CC(C)C)N3[C@@H](C#N)[C@H](C2)N1C)OCO5 (stereo partly shown)
IC50 (P-388): 0.1 nM
IC50 (DU-145 [1]): 0.1 nM
IC50 (HT-29): 0.1 nM
IC50 (MEL-28): 0.1 nM
IC50 (A-549 [2]): 0.1 nM

COc1c(C)cc2c(c1O)[C@@H]1C3Cc4c(OC(C)=O)c(C)c5c(c4[C@H](COC(=O)/C=C/c4ccccc4)N3[C@@H](O)[C@H](C2)N1C)OCO5 (stereo partly shown) [drawing 159]
IC50 (P-388): 0.1 nM

C=CCOC(=O)Oc1c(C)c2c(c3c1CC1[C@H]4c5c(cc(C)c(OC)c5O)C[C@@H]([C@H](O)N1[C@H]3CNC(=O)/C=C/c1ccccc1)N4C)OCO2 (stereo partly shown)
IC50 (P-388): 0.1 nM
IC50 (DU-145 [1]): 0.1 nM
IC50 (HT-29): 0.1 nM
IC50 (MEL-28): 0.1 nM
IC50 (A-549 [2]): 0.1 nM

COc1c(C)cc2c(c1O)[C@@H]1C3Cc4c(OC(C)=O)c(C)c5c(c4[C@H](CNC(=O)Cc4ccccc4)N3[C@@H](C#N)[C@H](C2)N1C)OCO5 (stereo partly shown)
IC50 (P-388): 0.1 nM
IC50 (DU-145 [1]): 0.1 nM
IC50 (HT-29): 0.1 nM
IC50 (MEL-28): 0.1 nM
IC50 (A-549 [2]): 0.1 nM

COc1c(C)cc2c(c1O)[C@@H]1C3Cc4c(OC(C)=O)c(C)c5c(c4[C@H](CNC(=O)[C@H](C)NC(=O)/C=C/c4ccccc4)N3[C@@H](C#N)[C@H](C2)N1C)OCO5 (stereo partly shown)
IC50 (HT-29): 0.1 nM

COc1c(C)cc2c(c1O)[C@@H]1C3Cc4c(OC(C)=O)c(C)c5c(c4[C@H](CNC(=O)CCc4ccccc4)N3[C@@H](O)[C@H](C2)N1C)OCO5 (stereo partly shown) [drawing 123]
IC50 (P-388): 0.1 nM
IC50 (DU-145 [1]): 0.1 nM
IC50 (HT-29): 0.1 nM
IC50 (MEL-28): 0.1 nM
IC50 (A-549 [2]): 0.1 nM

C/C=C/C(=O)NC[C@H]1c2c(c(OC(C)=O)c(C)c3c2OCO3)CC2[C@H]3c4c(cc(C)c(OC)c4O)C[C@@H]([C@H](C#N)N21)N3C (stereo partly shown)
IC50 (P-388): 0.1 nM
IC50 (DU-145 [3]): 0.0008 µM
IC50 (A-549 [4]): 0.0008 µM
IC50 (HT-29): 0.1 nM
IC50 (MEL-28): 0.1 nM

C/C=C(\OC(C)=O)C1=C(C2=COCO2)[C@H](CNC(=O)/C=C/c2ccccc2)N2C(C1)[C@H]1c3c(cc(C)c(OC)c3O)C[C@@H]([C@@H]2C#N)N1C (stereo partly shown)
IC50 (P-388): 0.1 nM
IC50 (DU-145 [1]): 0.1 nM
IC50 (HT-29): 0.1 nM
IC50 (MEL-28): 0.1 nM
IC50 (A-549 [2]): 0.1 nM

COc1c(C)cc2c(c1O)[C@@H]1C3Cc4c(OC(C)=O)c(C)c5c(c4[C@H](CNC(=O)[C@H](C)NC(=O)C(F)(F)F)N3[C@@H](O)[C@H](C2)N1C)OCO5 (stereo partly shown) [drawing 110]
IC50 (P-388): 0.1 nM
IC50 (DU-145 [1]): 0.1 nM
IC50 (HT-29): 0.1 nM
IC50 (MEL-28): 0.1 nM
IC50 (A-549 [2]): 0.1 nM

COc1c(C)cc2c(c1O)[C@@H]1C3Cc4c(OC(C)=O)c(C)c5c(c4[C@H](COC(=O)CCc4ccccc4)N3[C@@H](O)[C@H](C2)N1C)OCO5 (stereo partly shown) [drawing 158]
IC50 (P-388): 0.1 nM
IC50 (DU-145 [1]): 0.1 nM
IC50 (HT-29): 0.1 nM
IC50 (MEL-28): 0.1 nM
IC50 (A-549 [2]): 0.1 nM

COc1c(C)cc2c(c1O)[C@@H]1C3Cc4c(OC(C)=O)c(C)c5c(c4[C@H](CNC(=O)[C@H](C)NC(=O)C(F)(F)F)N3[C@@H](C#N)[C@H](C2)N1C)OCO5 (stereo partly shown)
IC50 (P-388): 0.1 nM
IC50 (DU-145 [1]): 0.1 nM
IC50 (HT-29): 0.1 nM
IC50 (MEL-28): 0.1 nM
IC50 (A-549 [2]): 0.1 nM

C=CCOC(=O)Oc1c(C)c2c(c3c1CC1[C@H]4c5c(cc(C)c(OC)c5O)C[C@@H]([C@H](C#N)N1[C@H]3CNC(=O)/C=C/c1ccccc1)N4C)OCO2 (stereo partly shown)
IC50 (P-388): 0.1 nM
IC50 (DU-145 [1]): 0.1 nM
IC50 (HT-29): 0.1 nM
IC50 (MEL-28): 0.1 nM
IC50 (A-549 [2]): 0.1 nM

CCCC(=O)OC[C@H]1c2c(c(OC(C)=O)c(C)c3c2OCO3)CC2[C@H]3c4c(cc(C)c(OC)c4O)C[C@@H]([C@H](O)N21)N3C (stereo partly shown) [drawing 156]
IC50 (P-388): 0.1 nM
IC50 (DU-145 [1]): 0.1 nM
IC50 (HT-29): 0.1 nM
IC50 (MEL-28): 0.1 nM
IC50 (A-549 [2]): 0.1 nM

COc1c(C)cc2c(c1O)[C@@H]1C3Cc4c(OC(C)=O)c(C)c5c(c4[C@H](CNC(=O)/C=C/c4ccccc4)N3[C@@H](O)[C@H](C2)N1C)OCO5 (stereo partly shown) [drawing 113]
IC50 (P-388): 0.1 nM
IC50 (DU-145 [1]): 0.1 nM
IC50 (HT-29): 0.1 nM
IC50 (MEL-28): 0.1 nM
IC50 (A-549 [2]): 0.1 nM
